# From US10588313B1, “Compounds of fatty acids and ammonium fatty acid salts” (Falcon Lab, LLC, priority 2019, dated 2020)
# Assays:
# S. aureous = test: AOAC International Use-Dilution Method, comparison test; conditions: 2.5% solution
# Protocol: In this test, 60 sterilized steel penicylinders are inoculated by soaking in a test culture of the bacteria. The cylinders are then dried in an incubator. After drying, they are submerged in test tubes containing the test substance and allowed to incubate for ten minutes. They are then aseptically transferred to individual tubes containing neutralization/growth medium. The neutralization/growth medium tubes are shaken and incubated. After the incubation period, tubes are qualitatively assessed for growth of the test organism.
# AOAC has defined the passing criteria for this test as a disinfectant to be less than or equal to 3 positive carriers out of 60 when testing against S. aureous.
# [1] = test system: Salmonella enterica ATCC 10708; test: AOAC International Use-Dilution Method (hard surface disinfectant, steel penicylinders); format: cell-based; conditions: 2% dispersion, ten minutes exposure
# [2] = Stability of solid and of water dispersion on storage; format: physicochemical; conditions: no emulsifier or surfactant
# Text: The compounds are believed to form as the result of hydrogen bonding wherein a hydrogen atom covalently bonded to nitrogen becomes attracted to the oxygen of the carboxylic acid forming a hydrogen bond.
# Since the compounds are stable at ambient temperatures and pressures and exist as non-hygroscopic crystalline solids, they may be transported as 100% active ingredients to their point of use. […] The compounds can be stored and shipped in any type of container, including plastic, paper or cloth bags, metal, glass or plastic. In an embodiment, the compounds can be transported in such containers to the point of use by mixing with water to produce disinfecting compositions.
# When the solid compound is mixed with water, it completely distributes in the water to produce a uniform composition in the absence of any emulsifier, surfactant, soap, wetting agent, dispersing agent or suspending agent. The solid compound, while being water-insoluble, remains stable as a dispersion indefinitely.
# (§1) A slurry of white solid formed immediately. About 200 ml of distilled water were added with stirring to obtain a clear solution with a pH of 8. […] It melted sharply at 62° C.
# [3] = test system: Enterococcus faecalis 29212; test: ASTM E2315 antibacterial activity; format: cell-based; conditions: 1% dispersion, 30 second contact time
# Protocol: (§2) A 1:99 mixture of the solid compound described in Experiment 1 was made by adding 0.2 gm. to 19.8 ml. of sterile water. Following ASTM International Method E2315 for assessment of antibacterial activity, 10 ml of this uniform mixture was aliquoted into a sterile vessel to produce a 1% dispersion that was then inoculated with the Gram-positive bacterium Staphylococcus aureus ATCC 6538 at 25° C. for a target concentration of 1×10^6 CFU (cells)/ml. One ml of the inoculated substance was harvested at each contact time and neutralized in 9 ml of D/E broth. Enumerations were performed for each time point using standard microbiologic plating methods. At time zero, the percent reduction in bacteria was already 99.9997%, the limit of detection. The percent reduction at 30 seconds, 2 minutes and 10 minutes were also 99.9997%. When 0.1 ml of the 1% dispersion was diluted with 9.9 ml of sterile water to prepare a 0.1% dispersion and the same tests run, the percent reduction in bacteria count was 99.9997% at the 30-second contact time.
# The same dispersion used in Examples 4 and 5 was tested against Gram-positive Enterococcus faecalis 29212 in the manner described in Example 2. After 30 second contact time, the bacterial reduction was >99.9986%.
# [4] = test system: Staphylococcus aureus ATCC 6538; test: ASTM International Method E2315 assessment of antibacterial activity (time kill in suspension); format: cell-based; conditions: for percent reduction in bacteria: 1% dispersion in water; for percent reduction of the test bacteria: pH 6, 30 seconds contact time
# Protocol: as §2, with “[…].” for “Following ASTM International Method E2315 for assessment of antibacterial activity, 10 ml of this uniform mixture was aliquoted into a sterile vessel to produce a 1% dispersion that was then inoculated with the Gram-positive bacterium Staphylococcus aureus ATCC 6538 at 25° C. for a target concentration of 1×10^6 CFU (cells)/ml.”
# [5] = test system: Pseudomonas aeruginosa 15442; test: ASTM E2315 antibacterial activity; format: cell-based; conditions: 1% dispersion, 30 seconds contact time
# Protocol: as §2
# (§3) The 1% dispersion described in Example 3 was contacted with the Gram-negative bacteria Escherichia coli 8739 and Pseudomonas aeruginosa 15442 each in the manner described in Example 2. After 30 seconds of contact time, the reductions of the test bacteria were 99.9996% and 99.995% respectively.
# Escherichia coli 8739 = test: ASTM E2315 antibacterial activity; format: cell-based; conditions: 1% dispersion, 30 seconds contact time
# Protocol: as §2, §3
# pH of water dispersion = format: physicochemical
# Protocol: as §1
# After standing for 4 hours, a white, opaque, uniform thin liquid was obtained. The pH of the liquid was 6. The bottle was then shaken vigorously for several minutes. The contents of the bottle changed to a foamy, motionless, thick gel that totally filled the bottle. After standing overnight, the gel remained the same, still filling the bottle. But after standing for 48 hours, the gel reverted to the original thin liquid. Upon shaking the bottle again, the thick gel reappeared.
# Staphlycoccus aureous = conditions: even numbered fatty acids C8 to C18; cited from earlier work
# Candida albicans = conditions: even numbered fatty acids C8 to C18; cited from earlier work
# Streptococcus Group A = conditions: even numbered fatty acids C8 to C18; cited from earlier work
compound,measurement,setting,value
CCCCCCCCC(=O)O.N [ammonium nonanoate],AOAC disinfectant test result,S. aureous,no disinfectant properties
same,number of confirmed positive test tubes out of 60 carriers,S. aureous; pass = less than or equal to 3 positive carriers out of 60,60
ammonium di-nonanoate [Example 1],AOAC disinfectant test result,[1],pass
same,number of positive test tubes (growth) out of 60 carriers,[1]; pass = less than or equal to 1 positive carrier out of 60,0
same,stability of water dispersion on storage,[2],remained unchanged in appearance after months of storage
same,bacterial reduction,[3],> 99.9986%
same,percent reduction in bacteria count,"[4]; 0.1% dispersion in water, 30-second contact time",99.9997%
same,percent reduction in bacteria,[4]; 30 seconds contact time,99.9997%
same,percent reduction in bacteria,[4]; 2 minutes contact time,99.9997%
same,percent reduction in bacteria,[4]; 10 minutes contact time,99.9997%
same,percent reduction in bacteria,"[4]; time zero, 25° C., 1×10^6 CFU/ml, 99.9997% = limit of detection",99.9997%
same,percent reduction of the test bacteria,[4]; 1% dispersion of solid stored in a plastic container for over 5 years,> 99.9997%
same,reduction of the test bacteria,[5],99.995%
same,reduction of the test bacteria,Escherichia coli 8739,99.9996%
same,pH of water dispersion,pH of water dispersion; 1% dispersion in distilled water,6
same,pH of water dispersion,pH of water dispersion; 10% dispersion in distilled water,6
same,pH of water dispersion,pH of water dispersion; concentration not given,6
ammonium di-octanoate [Example 10],percent reduction of the test bacteria,[4]; 0.5% dispersion in water,> 99.988%
same,pH of water dispersion,pH of water dispersion; 0.5% dispersion in distilled water,6
CCCCCCCCCC(=O)O [capric acid],antimicrobial activity among fatty acids tested,Staphlycoccus aureous,highest activity
same,antimicrobial activity among fatty acids tested,Candida albicans,highest activity
same,antimicrobial activity among fatty acids tested,Streptococcus Group A,highest activity
